# Where two headings read alike, the source gives them in different places. Numbered stars: 1 amine (or outer) side, 2 acyl side, 3 side chain; on linkers, the order of the positions; unused ones are H or OH. Square brackets hold non-standard residues; d marks the D form. Side chains are listed from the residue outwards. Peptide text beside a SMILES is read from it. * marks the point of attachment. Decanoyl(10-(4-HOOC-PhO)) = O=C(O)c1ccc(OCCCCCCCCCC(=O)*)cc1; γGlu = O=C(O)[C@H](CCC(=O)[*:2])N[*:1]; C14 diacid = O=C(O)CCCCCCCCCCCCC(=O)*; AEEA = NCCOCCOCC(=O)O; Aib = CC(C)(N)C(=O)O
# What was measured:
# human GLP-1 receptor = target: T1, human GLP-1 receptor (Homo sapiens, UniProt P43220); assay: GLP-1 receptor binding: displacement of 125I-GLP-1 (SPA) at low and high albumin; settings: for Ratio [(IC50/nM) high HSA]/[(IC50/nM) low HSA]: 2.0% HSA vs 0.001% HSA
# T1 construct: expressed in transfected cells; membranes
# Protocol: The purpose of this experiment is to investigate the binding to the GLP-1 receptor of the GLP-1 derivatives, and how the binding is potentially influenced by the presence of albumin. This is done in an in vitro experiment as described below.
# In order to test the binding of the derivatives to albumin, the assay was performed with a low concentration of albumin (0.001%—corresponding to the residual amount thereof in the tracer), as well as with a high concentration of albumin (2.0% added). A shift in the binding affinity, IC50, is an indication that the peptide in question binds to albumin, and thereby a prediction of a potential protracted pharmacokinetic profile of the peptide in question in animal models.
# Species (in vitro): Hamster
# Biological End Point: Receptor Binding
# A stable transfected cell line and a high expressing clone were selected for screening. The cells were grown at 5% CO2 in DMEM, 10% FCS, 1% Pen/Strep (Penicillin/Streptomycin) and 1.0 mg/ml of the selection marker G418.
# The cells (approx. 80% confluence) were washed twice in PBS and harvested with Versene (aqueous solution of the tetrasodium salt of ethylenediaminetetraacetic acid), following which they were separated by centrifugation at 1000 rpm for 5 min. The cells/cell pellet must be kept on ice to the extent possible in the subsequent steps. The cell pellet was homogenised with Ultrathurrax for 20-30 seconds in a suitable amount of Buffer 1 (depending on the amount of cells, but e.g. 10 ml). The homogenate was centrifuged at 20000 rpm for 15 minutes. The pellet was resuspended (homogenised) in 10 ml Buffer 2 and re-centrifuged. This step was repeated once more. The resulting pellet was resuspended in Buffer 2, and the protein concentration was determined. The membranes were stored at minus 80° C.
# Buffer 1: 20 mM Na-HEPES+10 mM EDTA, pH 7.4
# Buffer 2: 20 mM Na-HEPES+0.1 mM EDTA, pH 7.4
# Test compounds, membranes, SPA-particles and [^125I]-GLP-1(7-36)NH2 were diluted in assay buffer. 50 ul (micro liter) HSA (“high albumin” experiment containing 2% HSA), or buffer (“low albumin” experiment containing 0.001% HSA), was added to Optiplate, and 25 ul of test compounds were added. 5-10 ug membrane protein/sample was added (50 ul) corresponding to 0.1-0.2 mg protein/ml (to be preferably optimised for each membrane preparation). SPA-particles (Wheatgerm agglutinin SPA beads, Perkin Elmer, #RPNQ0001) were added in an amount of 0.5 mg/well (50 ul). The incubation was started with [^125I]-GLP-1]-(7-36)NH2 (final concentration 0.06 nM corresponding to 49.880 DPM, 25 ul). The plates were sealed with PlateSealer and incubated for 120 minutes at 30° C. while shaking. The plates were centrifuged (1500 rpm, 10 min) and counted in Topcounter.
# [1] = Estimate of oral bioavailability: gut injection in rat (caprate), exposure in plasma; type: in vivo; settings: injection in jejunum, 1000 uM in 55 mg/ml sodium caprate, plasma concentration (pM) at 30 min divided by dosing solution concentration (μM), mean n=4
# Outline: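 Male Sprague Dawley rats (~240 g, n=4) received 100 μl of 1000 uM derivative in 55 mg/ml sodium caprate by catheter into proximal or mid jejunum. Tail-vein EDTA plasma was sampled up to 240 min. Peptide was quantified by two-antibody bead chemiluminescence immunoassay, giving mean concentration-time profiles (pmol/l).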
# T1 sequence (P43220 24-463): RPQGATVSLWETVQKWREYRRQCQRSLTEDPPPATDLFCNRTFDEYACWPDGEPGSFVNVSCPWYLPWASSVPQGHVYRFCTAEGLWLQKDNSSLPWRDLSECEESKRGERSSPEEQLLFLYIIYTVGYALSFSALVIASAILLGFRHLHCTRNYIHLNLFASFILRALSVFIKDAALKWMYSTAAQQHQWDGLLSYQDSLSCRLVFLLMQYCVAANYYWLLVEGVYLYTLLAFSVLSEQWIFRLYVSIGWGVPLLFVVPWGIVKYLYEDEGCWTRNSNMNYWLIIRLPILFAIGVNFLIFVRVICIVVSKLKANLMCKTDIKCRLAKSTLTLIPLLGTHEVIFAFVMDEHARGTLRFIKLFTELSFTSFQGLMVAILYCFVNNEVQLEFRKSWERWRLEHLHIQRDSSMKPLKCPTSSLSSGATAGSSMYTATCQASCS
SMILES,Ratio [(IC50/nM) high HSA]/[(IC50/nM) low HSA] (human GLP-1 receptor),Dose-corrected exposure at 30 min [1],"IC50 (human GLP-1 receptor; low albumin, 0.001% HSA, read-out: IC50/nM (low HSA)) [nM]","IC50 (human GLP-1 receptor; high albumin, 2.0% HSA, read-out: IC50/nM (high HSA)) [nM]"
"CC[C@H](C)[C@H](NC(=O)[C@H](Cc1ccccc1)NC(=O)[C@H](CCCCNC(=O)COCCOCCNC(=O)COCCOCCNC(=O)CC[C@H](NC(=O)CCCCCCCCCCCCC(=O)O)C(=O)O)NC(=O)[C@H](CCCNC(=N)N)NC(=O)[C@@H](NC(=O)[C@H](C)NC(=O)[C@H](CCC(N)=O)NC(=O)[C@H](CCCCNC(=O)COCCOCCNC(=O)COCCOCCNC(=O)CC[C@H](NC(=O)CCCCCCCCCCCCC(=O)O)C(=O)O)NC(=O)[C@H](CCC(=O)O)NC(=O)[C@H](CC(C)C)NC(=O)[C@H](Cc1ccc(O)cc1)NC(=O)[C@H](CO)NC(=O)[C@H](CO)NC(=O)[C@@H](NC(=O)[C@H](CC(=O)O)NC(=O)[C@H](CO)NC(=O)[C@@H](NC(=O)[C@H](Cc1ccccc1)NC(=O)[C@@H](NC(=O)CNC(=O)[C@H](CCC(=O)O)NC(=O)C(C)(C)NC(=O)[C@@H](N)Cc1c[nH]cn1)[C@@H](C)O)[C@@H](C)O)C(C)C)C(C)C)C(=O)N[C@@H](C)C(=O)N[C@@H](Cc1c[nH]cn1)C(=O)N[C@@H](CC(C)C)C(=O)N[C@H](C(=O)N[C@@H](CCCNC(=N)N)C(=O)NCC(=O)N[C@@H](CCCNC(=N)N)C(=O)NCC(=O)O)C(C)C [Example 7, N^ε22-[2-[2-[2-[[2-[2-[2-[[(4S)-4-carboxy-4-(13-carboxytridecanoylamino)butanoyl]amino]ethoxy]ethoxy]acetyl]amino]ethoxy]ethoxy]acetyl],N^ε27-[2-[2-[2-[[2-[2-[2-[[(4S)-4-carboxy-4-(13-carboxytridecanoylamino)butanoyl]amino]ethoxy]ethoxy]acetyl]amino]ethoxy]ethoxy]acetyl]-[Aib^8,Lys^22,Val^25,Arg^26,Lys^27,His^31,Arg^34]-GLP-1-(7-37)-peptide] (H-H[Aib]EGTFTSDVSSYLEK([AEEA-AEEA-γGlu-C14 diacid])QAVRK([AEEA-AEEA-γGlu-C14 diacid])FIAHLVRGRG-OH)",174,99,–,–
"CC[C@H](C)[C@H](NC(=O)[C@H](Cc1ccccc1)NC(=O)[C@H](CCCCNC(=O)COCCOCCNC(=O)COCCOCCNC(=O)CC[C@H](NC(=O)CCCCCCCCCCCCC(=O)O)C(=O)O)NC(=O)[C@H](CCCNC(=N)N)NC(=O)[C@@H](NC(=O)[C@H](C)NC(=O)[C@H](CCC(N)=O)NC(=O)[C@H](CCCCNC(=O)COCCOCCNC(=O)COCCOCCNC(=O)CC[C@H](NC(=O)CCCCCCCCCCCCC(=O)O)C(=O)O)NC(=O)[C@H](CCC(=O)O)NC(=O)[C@H](CC(C)C)NC(=O)[C@H](Cc1ccc(O)cc1)NC(=O)[C@H](CO)NC(=O)[C@H](CO)NC(=O)[C@@H](NC(=O)[C@H](CC(=O)O)NC(=O)[C@H](CO)NC(=O)[C@@H](NC(=O)[C@H](Cc1ccccc1)NC(=O)[C@@H](NC(=O)CNC(=O)[C@H](CCC(=O)O)NC(=O)C(C)(C)NC(=O)[C@@H](N)Cc1c[nH]cn1)[C@@H](C)O)[C@@H](C)O)C(C)C)C(C)C)C(=O)N[C@@H](C)C(=O)N[C@@H](Cc1c[nH]c2ccccc12)C(=O)N[C@@H](CC(C)C)C(=O)N[C@H](C(=O)N[C@@H](CCCNC(=N)N)C(=O)NCC(=O)O)C(C)C [Example 9, N^ε22-[2-[2-[2-[[2-[2-[2-[[(4S)-4-carboxy-4-(13-carboxytridecanoylamino)butanoyl]amino]ethoxy]ethoxy]acetyl]amino]ethoxy]ethoxy]acetyl],N^ε27-[2-[2-[2-[[2-[2-[2-[[(4S)-4-carboxy-4-(13-carboxytridecanoylamino)butanoyl]amino]ethoxy]ethoxy]acetyl]amino]ethoxy]ethoxy]acetyl]-Aib^8,Lys^22,Val^25,Arg^26,Lys^27,Arg^34l-GLP-1-(7-35)-peptide] (H-H[Aib]EGTFTSDVSSYLEK([AEEA-AEEA-γGlu-C14 diacid])QAVRK([AEEA-AEEA-γGlu-C14 diacid])FIAWLVRG-OH)",157,65,0.38,–
"CC[C@H](C)[C@H](NC(=O)[C@H](Cc1ccccc1)NC(=O)[C@H](CCCCNC(=O)COCCOCCNC(=O)COCCOCCNC(=O)CC[C@H](NC(=O)CCCCCCCCCOc1ccc(C(=O)O)cc1)C(=O)O)NC(=O)[C@H](CCCNC(=N)N)NC(=O)[C@H](C)NC(=O)[C@H](C)NC(=O)[C@H](CCC(N)=O)NC(=O)[C@H](CCC(=O)O)NC(=O)[C@H](CCC(=O)O)NC(=O)[C@H](CC(C)C)NC(=O)[C@H](Cc1ccc(O)cc1)NC(=O)[C@H](CO)NC(=O)[C@H](CO)NC(=O)[C@@H](NC(=O)[C@H](CC(=O)O)NC(=O)[C@H](CO)NC(=O)[C@@H](NC(=O)[C@H](Cc1ccccc1)NC(=O)[C@@H](NC(=O)CNC(=O)[C@H](CCC(=O)O)NC(=O)[C@H](C)NC(=O)[C@@H](N)Cc1c[nH]cn1)[C@@H](C)O)[C@@H](C)O)C(C)C)C(=O)N[C@@H](C)C(=O)N[C@@H](Cc1c[nH]c2ccccc12)C(=O)N[C@@H](CC(C)C)C(=O)N[C@H](C(=O)N[C@@H](CCCNC(=N)N)C(=O)NCC(=O)N[C@@H](CCCCNC(=O)COCCOCCNC(=O)COCCOCCNC(=O)CC[C@H](NC(=O)CCCCCCCCCOc1ccc(C(=O)O)cc1)C(=O)O)C(=O)O)C(C)C [Example 3, N^ε27-[2-[2-[2-[[2-[2-[2-[[(4S)-4-carboxy-4-[10-(4-carboxyphenoxy)decanoylamino]butanoyl]amino]ethoxy]ethoxy]acetyl]amino]ethoxy]ethoxy]acetyl], N^ε36-[2-[2-[2-[[2-[2-[2-[[(4S)-4-carboxy-4-[10-(4-carboxyphenoxy)decanoylamino]butanoyl]amino]ethoxy]ethoxy]acetyl]amino]ethoxy]ethoxy]acetyl]-[Glu^22,Arg^26,Lys^27,Arg^34,Lys^36],des-Gly37-GLP-1-(7-36)-peptide] (H-HAEGTFTSDVSSYLEEQAARK([AEEA-AEEA-γGlu-Decanoyl(10-(4-HOOC-PhO))])FIAWLVRGK([AEEA-AEEA-γGlu-Decanoyl(10-(4-HOOC-PhO))])-OH; N-terminus and C-terminus assumed)",–,67,–,29
"CC[C@H](C)[C@H](NC(=O)[C@H](Cc1ccccc1)NC(=O)[C@H](CCCCNC(=O)COCCOCCNC(=O)COCCOCCNC(=O)CC[C@H](NC(=O)CCCCCCCCCCCCC(=O)O)C(=O)O)NC(=O)[C@H](CCCNC(=N)N)NC(=O)[C@@H](NC(=O)[C@H](C)NC(=O)[C@H](CCC(N)=O)NC(=O)[C@H](CCCCNC(=O)COCCOCCNC(=O)COCCOCCNC(=O)CC[C@H](NC(=O)CCCCCCCCCCCCC(=O)O)C(=O)O)NC(=O)[C@H](CCC(=O)O)NC(=O)[C@H](CC(C)C)NC(=O)[C@H](Cc1ccc(O)cc1)NC(=O)[C@H](CO)NC(=O)[C@H](CO)NC(=O)[C@@H](NC(=O)[C@H](CC(=O)O)NC(=O)[C@H](CO)NC(=O)[C@@H](NC(=O)[C@H](Cc1ccccc1)NC(=O)[C@@H](NC(=O)CNC(=O)[C@H](CCC(=O)O)NC(=O)C(C)(C)NC(=O)[C@@H](N)Cc1c[nH]cn1)[C@@H](C)O)[C@@H](C)O)C(C)C)C(C)C)C(=O)N[C@@H](C)C(=O)N[C@@H](Cc1c[nH]c2ccccc12)C(=O)N[C@@H](CC(C)C)C(=O)N[C@H](C(=O)N[C@@H](CCCNC(=N)N)C(=O)O)C(C)C [Example 8, N^ε22-[2-[2-[2-[[2-[2-[2-[[(4S)-4-carboxy-4-(13-carboxytridecanoylamino)butanoyl]amino]ethoxy]ethoxy]acetyl]amino]ethoxy]ethoxy]acetyl], N^ε27-[2-[2-[2-[[2-[2-[2-[[(4S)-4-carboxy-4-(13-carboxytridecanoylamino)butanoyl]amino]ethoxy]ethoxy]acetyl]amino]ethoxy]ethoxy]acetyl]-[Aib^8,Lys^22,Val^25,Arg^26,Lys^27,Arg^34]-GLP-1-(7-34)-peptide] (H-H[Aib]EGTFTSDVSSYLEK([AEEA-AEEA-γGlu-C14 diacid])QAVRK([AEEA-AEEA-γGlu-C14 diacid])FIAWLVR-OH)",57,86,–,–

# Source: US11117947B2, “Double-acylated GLP-1 derivatives” (Novo Nordisk A/S, priority 2011, dated 2021)
